Measured values reported in patent publication US20060160864A1, “Acrylamide derivative, process for producing the same, and use” (priority 2003, published 2006).

Biological target: T1, human CCR5 (Homo sapiens, UniProt P51681)
T1 construct: expressed in transfected cells
Assay: Inhibition of [125I]-RANTES binding to CCR5/CHO cells (CCR5 antagonist activity)
Conditions: 40 min, test compound 1 μM, [125I]-RANTES 100 pM, CCR5/CHO strains, room temperature, read-out: Binding Inhibitory Ratio (%)
Protocol: Cloning of a CCR5 gene was conducted from human spleen cDNA by a PCR method. Using 0.5 ng of spleen cDNA (Toyobo Co., Ltd., QUICK-Clone cDNA) as a template, the PCR reaction was carried out in a DNA Thermal Cycler 480 (Perkin Elmer) using a TaKaRa EX Taq (Takara Shuzo Co., Ltd.) (reaction conditions: 30 cycles of treatments at 95° C. for 1 minute, at 60° C. for 1 minute, and at 75° C. for 5 minutes) by adding 25 pmol of primers, SEQ ID NO. 1 (sequence length: 34; sequence type: nucleic acid; number of chains: a single chain; topology: linear; sequence kind: other nucleic acid, synthetic DNA) described in Experimental Example (1) of WO 99/32100, and SEQ ID NO. 2 (sequence length: 34; sequence type: nucleic acid; number of chains: a single chain; topology: linear; sequence kind: other nucleic acid, synthetic DNA) described in Experimental Example (1) of WO 99/32100, respectively, which were prepared by referring to the base sequence of the CCR5 gene described by Samson et al. (Biochemistry 35 (11), 3362-3367 (1996)). The PCR products were subjected to agarose gel electrophoresis to collect DNA fragments of about 1.0 kb. Then, the CCR5 gene was cloned using an Original TA Cloning Kit (Funakoshi Co., Ltd.).
The plasmids obtained above were digested with restriction enzymes XbaI (Takara Shuzo Co., Ltd.) and BamHI (Takara Shuzo Co., Ltd.), and subjected to agarose gel electrophoresis to collect DNA fragments of about 1.0 kb. The DNA fragments and a plasmid pcDNA3.1 (Funakoshi Co., Ltd.) for expression in animal cells, which was previously digested with XbaI and BamHI, were mixed and ligated by DNA Ligation Kit Ver.2 (Takara Shuzo Co., Ltd.). Transformation of E. coli JM109 competent cells (Takara Shuzo Co., Ltd.) gave plasmid pCKR5.
CHO-K1 cells grown in a 750 ml tissue culture flask (Becton Dickinson) using Ham's F12 medium (Nihon Pharmaceutical Co., Ltd.) containing 10% fetal bovine serum (Lifetech Oriental) were collected from the flask by using 0.5 g/L trypsin-0.2 g/L EDTA (Lifetech Oriental). The cells were then washed with PBS (Lifetech Oriental), centrifuged (1000 rpm, 5 minutes), and suspended in PBS. Next, DNA was introduced into the cells using Gene Pulser (Bio-Rad Laboratories Inc.) under the following conditions. Namely, 8×10^6 cells and 10 μg of plasmid pCKR5 for expression of human CCR5 were added into a cuvette of a 0.4 cm-gap, and electroporation was carried out at an electric voltage of 0.25 kV and a capacitance of 960 μF. Subsequently, the cells were transferred into Ham's F12 medium containing 10% fetal bovine serum, and incubated for 24 hours. The cells were again collected, centrifuged, and then suspended in Ham's F12 medium containing 10% fetal bovine serum and Geneticin (Lifetech Oriental) at a concentration of 500 μg/ml. The suspension of cells was diluted to a concentration of 10^4 cells/ml, and inoculated on a 96-well plate (Becton Dickinson) to give Geneticin-resistant strains.
Subsequently, the Geneticin-resistant strains were cultured in the 96-well plate (Becton Dickinson), and then CCR5-expressing cells were selected from the resistant strains. Namely, an assay buffer (Ham's F12 medium containing 0.5% BSA, and 20 mM HEPES (Wako Pure Chemical Industries, Ltd., pH 7.2)) containing 200 pM [^125I]-RANTES (Amersham) as a ligand was added to each well and the binding reaction was carried out at room temperature for 40 minutes. Each well plate containing the cells was washed with ice-cooled PBS, and then to each well was added 1 M NaOH in an amount of 50 μl/well, which was stirred. The cells to which the ligand bound specifically, i.e., CCR5/CHO strains, were selected by measurement of radioactivity by γ-counter.
The CCR5/CHO strains were inoculated on a 96-well microplate at a concentration of 5×10^4 cells/well, respectively and were cultured for 24 hours. […]

T1 sequence (P51681 whole entry): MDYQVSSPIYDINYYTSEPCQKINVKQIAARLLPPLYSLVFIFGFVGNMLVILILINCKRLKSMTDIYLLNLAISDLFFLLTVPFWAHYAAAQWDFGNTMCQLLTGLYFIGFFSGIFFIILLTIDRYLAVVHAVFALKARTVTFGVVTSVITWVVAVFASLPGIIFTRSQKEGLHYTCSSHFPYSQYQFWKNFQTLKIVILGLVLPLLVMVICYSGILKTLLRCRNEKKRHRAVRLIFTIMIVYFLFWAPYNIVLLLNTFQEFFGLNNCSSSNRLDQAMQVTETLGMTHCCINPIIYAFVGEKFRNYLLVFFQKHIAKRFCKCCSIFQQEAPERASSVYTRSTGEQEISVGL

SMILES	inhibition at 1 µM [%]
CCCCOCCOc1ccc(-c2ccc(N3CCC(C(=O)OC)C3)c(/C=C(\C)C(=O)Nc3ccc([S@@+]([O-])Cc4cncn4CCC)cc3)c2)cc1 (single isomer, unassigned) [Compound 57, (Ss)-(2E)-3-[4′-(2-butoxyethoxy)-4-[3-(methoxycarbonyl)pyrrolidin-1-yl]-1,1′-biphenyl-3-yl]-2-methyl-N-[4-[[(1-propyl-1H-imidazol-5-yl)methyl]sulfinyl]phenyl]acrylamide]	100
CCCCOCCOc1ccc(-c2ccc(N3CCC(C(=O)O)C3)c(/C=C(\C)C(=O)Nc3ccc([S@@+]([O-])Cc4cncn4CCC)cc3)c2)cc1 (single isomer, unassigned) [Compound 59, (Ss)-(2E)-3-[4′-(2-butoxyethoxy)-4-(3-carboxypyrrolidin-1-yl)-1,1′-biphenyl-3-yl]-2-methyl-N-[4-[[(1-propyl-1H-imidazol-5-yl)methyl]sulfinyl]phenyl]acrylamide]	89
CCCCOCCOc1ccc(-c2ccc(N3CCCC3C)c(/C=C(\C)C(=O)Nc3ccc([S@@+]([O-])Cc4cncn4CCC)cc3)c2)cc1 (some centres unmarked) [Compound 17, (Ss)-(2E)-3-[4′-(2-butoxyethoxy)-4-(2-methylpyrrolidin-1-yl)-1,1′-biphenyl-3-yl]-2-methyl-N-[4-[[(1-propyl-1H-imidazol-5-yl)methyl]sulfinyl]phenyl]acrylamide]	100
CCCCOCCOc1ccc(-c2ccc(N3CCC(C)C3)c(/C=C(\C)C(=O)Nc3ccc([S@@+]([O-])Cc4cncn4CCC)cc3)c2)cc1 (some centres unmarked) [Compound 23, (Ss)-(2E)-3-[4′-(2-butoxyethoxy)-4-(3-methylpyrrolidin-1-yl)-1,1′-biphenyl-3-yl]-2-methyl-N-[4-[[(1-propyl-1H-imidazol-5-yl)methyl]sulfinyl]phenyl]acrylamide]	100
CCCCOCCOc1ccc(-c2ccc(N3CCCC3)c(/C(C)=C/C(=O)Nc3ccc([S@@+]([O-])Cc4cncn4CCC)cc3)c2)cc1 [Compound 35, (S)-(2E)-3-[4′-(2-butoxyethoxy)-4-pyrrolidin-1-yl-1,1′-biphenyl-3-yl]-N-[4-[[(1-propyl-1H-imidazol-5-yl)methyl]sulfinyl]phenyl]but-2-enoic amide]	100
CCCCOCCOc1ccc(-c2ccc(N3CCC(COC(C)=O)C3)c(/C=C(\C)C(=O)Nc3ccc([S@@+]([O-])Cc4cncn4CCC)cc3)c2)cc1 (some centres unmarked) [Compound 38, (Ss)-(2E)-3-[4-[3-(acetoxymethyl)pyrrolidin-1-yl]-4′-(2-butoxyethoxy)-1,1′-biphenyl-3-yl]-2-methyl-N-[4-[[(1-propyl-1H-imidazol-5-yl)methyl]sulfinyl]phenyl]acrylamide]	93
CCCCOCCOc1ccc(-c2ccc(N3CCC(CO)C3)c(/C=C(\C)C(=O)Nc3ccc([S@@+]([O-])Cc4cncn4CCC)cc3)c2)cc1 (some centres unmarked) [Compound 39, (Ss)-(2E)-3-[4′-(2-butoxyethoxy)-4-[3-(hydroxymethyl)pyrrolidin-1-yl]-1,1′-biphenyl-3-yl]-2-methyl-N-[4-[[(1-propyl-1H-imidazol-5-yl)methyl]sulfinyl]phenyl]acrylamide]	99
CCCCOCCOc1ccc(-c2ccc(N3CCC(C(=O)OC)C3)c(/C=C(\C)C(=O)Nc3ccc([S@@+]([O-])Cc4cncn4CCC)cc3)c2)cc1 (some centres unmarked) [Compound 40, (Ss)-(2E)-3-[4′-(2-butoxyethoxy)-4-[3-(methoxycarbonyl)pyrrolidin-1-yl]-1,1′-biphenyl-3-yl]-2-methyl-N-[4-[[(1-propyl-1H-imidazol-5-yl)methyl]sulfinyl]phenyl]acrylamide]	100
CCCCOCCOc1ccc(-c2ccc(N3CC(C)C(C)C3)c(/C=C(\C)C(=O)Nc3ccc([S@@+]([O-])Cc4cncn4CCC)cc3)c2)cc1 (stereo partly drawn) [Compound 42, (S)-(2E)-3-[4′-(2-butoxyethoxy)-4-(3,4-dimethylpyrrolidin-1-yl)-1,1′-biphenyl-3-yl]-2-methyl-N-[4-[[(1-propyl-1H-imidazol-5-yl)methyl]sulfinyl]phenyl]acrylamide]	100
CCCCOCCOc1ccc(-c2ccc(N3CCC(C(N)=O)C3)c(/C=C(\C)C(=O)Nc3ccc([S@@+]([O-])Cc4cncn4CCC)cc3)c2)cc1 (some centres unmarked) [Compound 43, (Ss)-(2E)-3-[4′-(2-butoxyethoxy)-4-(3-carbamoylpyrrolidin-1-yl)-1,1′-biphenyl-3-yl]-2-methyl-N-[4-[[(1-propyl-1H-imidazol-5-yl)methyl]sulfinyl]phenyl]acrylamide]	86
CCCCOCCOc1ccc(-c2cnc(N3CCCC3)c(/C=C(\C)C(=O)Nc3ccc([S@@+]([O-])Cc4cncn4CCC)cc3)c2)cc1 [Compound 47, (S)-(2E)-3-[5-[4-(2-butoxyethoxy)phenyl]-2-pyrrolidin-1-ylpyridin-3-yl]-2-methyl-N-[4-[[(1-propyl-1H-imidazol-5-yl)methyl]sulfinyl]phenyl]acrylamide]	96
CCCCOCCOc1ccc(-c2cnc(N3CCC(C)C3)c(/C=C(\C)C(=O)Nc3ccc([S@@+]([O-])Cc4cncn4CCC)cc3)c2)cc1 (some centres unmarked) [Compound 48, (Ss)-(2E)-3-[5-[4-(2-butoxyethoxy)phenyl]-2-(3-methylpyrrolidin-1-yl)pyridin-3-yl]-2-methyl-N-[4-[[(1-propyl-1H-imidazol-5-yl)methyl]sulfinyl]phenyl]acrylamide]	98
CCCCOCCOc1ccc(-c2cnc(N3CCC(COC(C)=O)C3)c(/C=C(\C)C(=O)Nc3ccc([S@@+]([O-])Cc4cncn4CCC)cc3)c2)cc1 (some centres unmarked) [Compound 49, (Ss)-(2E)-3-[2-[3-(acetoxymethyl)pyrrolidin-1-yl]-5-[4-(2-butoxyethoxy)phenyl]pyridin-3-yl]-2-methyl-N-(4-[[(1-propyl-1H-imidazol-5-yl)methyl]sulfinyl]phenyl]acrylamide]	100

Same assay, conditions: test compound 1 μM; [125I]-RANTES 100 pM; CCR5/CHO strains; room temperature, 40 minutes

SMILES	Binding Inhibitory Ratio (%)
CCCCOCCOc1ccc(-c2ccc(N3CCC(C(=O)OC)C3)c(/C=C(\C)C(=O)Nc3ccc([S@@+]([O-])Cc4cncn4CCC)cc3)c2)cc1 (single isomer, unassigned) [Compound 58, (Ss)-(2E)-3-[4′-(2-butoxyethoxy)-4-[3-(methoxycarbonyl)pyrrolidin-1-yl]-1,1′-biphenyl-3-yl]-2-methyl-N-[4-[[(1-propyl-1H-imidazol-5-yl)methyl]sulfinyl]phenyl]acrylamide]	95
CCCCOCCOc1ccc(-c2ccc(N3CCC(C(=O)O)C3)c(/C=C(\C)C(=O)Nc3ccc([S@@+]([O-])Cc4cncn4CCC)cc3)c2)cc1 (single isomer, unassigned) [Compound 60, (Ss)-(2E)-3-[4′-(2-butoxyethoxy)-4-(3-carboxypyrrolidin-1-yl)-1,1′-biphenyl-3-yl]-2-methyl-N-[4-[[(1-propyl-1H-imidazol-5-yl)methyl]sulfinyl]phenyl]acrylamide]	91
CCCCOCCOc1ccc(-c2ccc(N3CCC(O)C3)c(/C=C(\C)C(=O)Nc3ccc([S@@+]([O-])Cc4cncn4CCC)cc3)c2)cc1 (some centres unmarked) [Compound 26]	90
CCCCOCCOc1ccc(-c2cc(/C=C(\C)C(=O)Nc3ccc([S@@+]([O-])Cc4cncn4CCC)cc3)c3c(c2)CCCN3C)cc1 [Compound 29, (S)-(2E)-3-[6-[4-(2-butoxyethoxy)phenyl]-1-methyl-1,2,3,4-tetrahydroquinolin-8-yl]-2-methyl-N-[4-[[(1-propyl-1H-imidazol-5-yl)methyl]sulfinyl]phenyl]-2-acrylic amide]	100
